According to PMC8149352 (Cancer Chemotherapy and Pharmacology, 2021):
Several values for one entry are separate records, joined by “and”; a condition that tells them apart may be missing. Equal entries are not always repeated. Where two headings read alike, the source gives them in different places.

Experiments:
[1] = Part A: effect of strong CYP3A inducer rifampin on single-dose pamiparib plasma PK (phase 1 DDI study); type: in vivo, human (patients with advanced solid tumors); details: for Tmax: read-out: pamiparib tmax, median (range)
Description: This was an open-label, parallel-group, phase 1 study consisting of a 2-part core phase and an extension phase. Only results for the core phases are reported herein (Supplementary Fig. 1). […] Blood samples for PK analysis were obtained on days 1 and 10 at predose, and at 0.5, 1, 2, 4, 6, 9, 12, 24, and 48 h postdose. Pamiparib plasma concentrations were determined using a validated liquid chromatography–mass spectrometry/mass spectrometry method (lower limit of quantification 1.0 ng/mL) at Covance Laboratory Services (Salt Lake City, Utah). […]
(§1) The safety population included all patients who received at least one dose of pamiparib. […] Plasma PK parameters were calculated from pamiparib concentration–time profiles using standard noncompartmental methods. PK parameters were calculated using Phoenix WinNonlin v6.4 or higher (Certara, Princeton, NJ, USA). […] Data for each treatment part were analyzed separately. Log-transformed AUC and Cmax values were analyzed using a linear mixed-effect model analysis assuming a fixed effect for treatment and a random effect for patients. The study design called for ~ 24 patients (12 in each part) to be enrolled to ensure at least 20 (10 in each part) completed the study. This sample size was based on the precedent set by other PK studies of a similar nature and was not based on power calculations.

[2] = Part B: effect of strong CYP3A inhibitor itraconazole on single-dose pamiparib plasma PK (phase 1 DDI study); type: in vivo, human (patients with solid tumors); details: for half-life / AUC(0-inf) / AUC(0-t) / Tmax / Cmax: human; for half-life / AUC(0-inf) / AUC(0-t) / Tmax: plasma, oral; for AUC(0-inf): N = 12, read-out: pamiparib AUC0-inf, GLSM (% CV); for AUC(0-t): N = 12, read-out: pamiparib AUC0-tlast, GLSM (% CV); for Tmax: N = 12, read-out: pamiparib tmax, median (range); for Cmax: N = 12, plasma, read-out: pamiparib Cmax, GLSM (% CV)
Description: Part B of the core phase assessed the effect of the strong CYP3A inhibitor itraconazole on the PK of pamiparib in patients with solid tumors. All patients received a single dose of oral pamiparib 20 mg on days 1 and 7, and oral itraconazole 200 mg QD on days 3–8. The 20-mg pamiparib dose, the lowest dose strength available and one-sixth of the highest phase 1 dose (120 mg), was deemed sufficient to cover the plasma exposure increase due to complete blockade of CYP3A by itraconazole. Part B patients fasted for at least 8 h before and at least 4 h after pamiparib administration, except for day 7 upon which itraconazole administration occurred ~ 30 min after completing a meal and pamiparib administration followed within 5 min of itraconazole administration. Blood samples for PK analysis were obtained on days 1 and 7 at the same time points listed above for Part A. After completing the core phase in Part A and Part B, patients were offered participation in the extension phase, in which they were to receive pamiparib PO BID in 28-day cycles until disease progression, unacceptable toxicity, withdrawal of consent, or any other reason for discontinuation. […]
as §1

[3] = Part A safety: adverse events (NCI CTCAE v5.0), safety population; type: in vivo, human (patients with advanced solid tumors)
Description: This was an open-label, parallel-group, phase 1 study consisting of a 2-part core phase and an extension phase. Only results for the core phases are reported herein (Supplementary Fig. 1). […] Blood samples for PK analysis were obtained on days 1 and 10 at predose, and at 0.5, 1, 2, 4, 6, 9, 12, 24, and 48 h postdose. Pamiparib plasma concentrations were determined using a validated liquid chromatography–mass spectrometry/mass spectrometry method (lower limit of quantification 1.0 ng/mL) at Covance Laboratory Services (Salt Lake City, Utah).
(§2) Adverse events (AEs) were monitored throughout the study and were graded according to the National Cancer Institute Common Terminology Criteria v5.0.
as §1

[4] = Part B safety: adverse events (NCI CTCAE v5.0), safety population; type: in vivo, human (patients with solid tumors)
Description: Part B of the core phase assessed the effect of the strong CYP3A inhibitor itraconazole on the PK of pamiparib in patients with solid tumors. All patients received a single dose of oral pamiparib 20 mg on days 1 and 7, and oral itraconazole 200 mg QD on days 3–8. The 20-mg pamiparib dose, the lowest dose strength available and one-sixth of the highest phase 1 dose (120 mg), was deemed sufficient to cover the plasma exposure increase due to complete blockade of CYP3A by itraconazole. Part B patients fasted for at least 8 h before and at least 4 h after pamiparib administration, except for day 7 upon which itraconazole administration occurred ~ 30 min after completing a meal and pamiparib administration followed within 5 min of itraconazole administration. Blood samples for PK analysis were obtained on days 1 and 7 at the same time points listed above for Part A. After completing the core phase in Part A and Part B, patients were offered participation in the extension phase, in which they were to receive pamiparib PO BID in 28-day cycles until disease progression, unacceptable toxicity, withdrawal of consent, or any other reason for discontinuation.
as §2, §1

[5] = set-up: method as in earlier work; details: cited from earlier work
[6] = tested on: poly(ADP-ribose) synthesis in peripheral blood mononuclear cells; set-up: method as in earlier work; details: pamiparib doses of 10 mg or higher; cited from earlier work
[7] = tested on: P-glycoprotein; set-up: method as in PMID 32652442; details: cited from earlier work
[8] = tested on: cytochromes P450 3A (CYP3A) and P450 2C8; set-up: method as in unpublished data; details: in vitro phenotyping study; ref unpublished data; cited from earlier work
[9] = set-up: method as in not given; details: in vitro and animal studies; ref not given; cited from earlier work
[10] = Part A, rifampin 600 mg QD coadministration
[11] = pamiparib 20 mg alone, day 1, reference
[12] = pamiparib 20 mg day 7 with itraconazole 200 mg QD, test
[13] = Part A (N = 12), by treatment period
[14] = Part B (N = 13; N = 12 for pamiparib with itraconazole), by treatment period

reduction of pamiparib plasma exposure (AUC) with rifampin coadministration ([1]; Part A, AUC0-tlast to AUC0-inf): 38–43% | reduction of pamiparib AUC0-inf (geometric mean) with rifampin versus day 1 [1, 10]: ~43% | reduction of pamiparib AUC0-tlast (geometric mean) with rifampin versus day 1 [1, 10]: ~ 38% and 38% | half-life ([1]; human, plasma, oral, 60 mg, Part A, pamiparib 60 mg alone, day 1, reference, N = 9, read-out: pamiparib t1/2, median (range) (converted)): 13.4 h | half-life ([1]; human, plasma, oral, 60 mg, Part A, pamiparib 60 mg alone, read-out: pamiparib mean t1/2 (converted)): 12.5 h | half-life ([1]; human, plasma, oral, Part A, pamiparib 60 mg day 10 with rifampin 600 mg QD, test, N = 11, read-out: pamiparib t1/2, median (range) (converted)): 7.7 h | half-life ([1]; human, plasma, oral, Part A, pamiparib 60 mg in combination with rifampin, read-out: pamiparib mean t1/2 (converted)): 7.94 h | AUC(0-inf) ([1]; human, plasma, oral, Part A, pamiparib 60 mg alone, day 1, reference, N = 9, read-out: pamiparib AUC0-inf, GLSM (% CV)): 29500 ng·h/mL | AUC(0-t) ([1]; human, plasma, oral, Part A, pamiparib 60 mg alone, day 1, reference, N = 11, read-out: pamiparib AUC0-tlast, GLSM (% CV)): 28800 ng·h/mL | Tmax ([1]; human, plasma, oral, Part A, pamiparib 60 mg alone, day 1, reference, N = 11): 2 h | Tmax ([1]; human, plasma, oral): 2 h | Cmax ([1]; human, Part A, single oral pamiparib 60 mg alone, day 1, reference, N = 11, plasma, read-out: pamiparib Cmax, GLSM (% CV)): 1990 ng/mL | half-life ([2]; 20 mg, pamiparib 20 mg alone, day 1, reference, N = 12, read-out: pamiparib t1/2, median (range) (converted)): 9.3 h | AUC(0-inf) [2, 11]: 8440 ng·h/mL | AUC(0-t) [2, 11]: 7840 ng·h/mL | Tmax [2, 11]: 2 h | AUC(0-inf) [2, 12]: 8380 ng·h/mL | AUC(0-t) [2, 12]: 7790 ng·h/mL | half-life ([2]; pamiparib 20 mg day 7 with itraconazole 200 mg QD, test, N = 12, read-out: pamiparib t1/2, median (range) (converted)): 11.2 h | Tmax [2, 12]: 1 h | half-life ([2]; pamiparib 20 mg in combination with itraconazole, read-out: pamiparib mean t1/2 (converted)): 12 h | Cmax ([2]; single oral pamiparib 20 mg alone, day 1, reference): 665 ng/mL | Cmax ([2]; single oral pamiparib 20 mg on day 7 with itraconazole 200 mg QD (days 3-8), test): 699 ng/mL | pamiparib mean t1/2 ([2]; pamiparib 20 mg alone): 11.9 h
Structure (SMILES): C[C@]12CCCN1CC1=NNC(=O)c3cc(F)cc4[nH]c2c1c34 [Pamiparib]
All TEAEs (any grade), patients [3, 13]: 1 (8.3) n (%) | Any treatment-related TEAE, patients [3, 13]: 0 n (%) | Grade >= 3 TEAE, patients [3, 13]: 0 n (%) | Serious AE, patients [3, 13]: 0 n (%) | Treatment-related TEAE related to both, patients [3, 13]: 0 n (%) | Treatment-related TEAE related to pamiparib only, patients [3, 13]: 0 n (%) | Treatment-related TEAE related to rifampin only, patients [3, 13]: 0 n (%) | tolerability ([3]; single dose 60 mg pamiparib alone or coadministered with 600 mg rifampin): well tolerated | All TEAEs (any grade), patients [4, 14]: 2 (15.4) n (%) | Any treatment-related TEAE, patients [4, 14]: 1 (7.7) n (%) | Grade >= 3 TEAE, patients [4, 14]: 0 n (%) | Serious AE, patients [4, 14]: 0 n (%) | Treatment-related TEAE related to both, patients [4, 14]: 0 n (%) | Treatment-related TEAE related to itraconazole only, patients [4, 14]: 0 n (%) | Treatment-related TEAE related to pamiparib only, patients [4, 14]: 1 (7.7) n (%) | Serious AE related to both, patients ([4]; Part B, by treatment period): 0 n (%) | Serious AE related to itraconazole only, patients ([4]; Part B, by treatment period): 0 n (%) | Serious AE related to pamiparib only, patients ([4]; Part B, by treatment period): 0 n (%) | tolerability ([4]; single dose 20 mg pamiparib alone or coadministered with 200 mg itraconazole): well tolerated | accumulation ratio for AUC (95% CI) ([5]; 60 mg BID): 2.37 (95% CI, 1.61–3.50) | accumulation ratio for Cmax (95% CI) ([5]; 60 mg BID): 1.99 (95% CI, 1.47–2.69) | geometric mean half-life ([5]; 60 mg BID): 13.5 h | tolerability ([5]; first-in-human study): well tolerated | median time to maximum concentration (tmax) ([5]; first-in-human study, oral): 1 to 2 h | anti-tumor activity ([5]; patients with high-grade epithelial non-mucinous ovarian cancer): preliminary anti-tumor activity | sustained inhibition of poly(ADP-ribose) synthesis in peripheral blood mononuclear cells [6]: ~ 80% | P-glycoprotein substrate status [7]: not a substrate of P-glycoprotein | enzymes mediating metabolism [8]: primarily mediated by cytochromes P450 3A (CYP3A) and P450 2C8 | clastogenicity [9]: clastogenic activity
